Assay results reported in patent US11028075B2, “Therapeutic compounds and methods of use thereof” (GENENTECH, INC., priority 2018, dated 2021).
Where a name gives a salt, the structure may show the parent alone.

Assays:
hNav1.7 [1] = target: T1, hNav1.7 (Homo sapiens (Human), UniProt Q15858); assay: Electrophysiological assay (EP), voltage clamp on Syncropatch 384PE, CHO cells stably expressing Nav1.7; type: cell-based; settings: holding potential −50 mV, 7.5 min compound incubation, read-out: EP_SP hNav1.7 EVO IC50
In short: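 Whole-cell automated patch clamp was run on CHO cells stably expressing human Nav1.7 cDNA, with internal solution CsCl/EGTA pH 7.2, external solution 80 mM NaCl pH 7.4, and 0.1% Pluronic F-127. From a −50 mV holding potential: −10 mV for 10 ms, −150 mV for 20 ms, then −10 mV for 10 ms, where current was measured. Inhibition was taken after 7.5 min compound incubation, with TTX added for full block.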
Target sequence in this assay (Q15858 other isoform, or with tags, fused parts or gaps): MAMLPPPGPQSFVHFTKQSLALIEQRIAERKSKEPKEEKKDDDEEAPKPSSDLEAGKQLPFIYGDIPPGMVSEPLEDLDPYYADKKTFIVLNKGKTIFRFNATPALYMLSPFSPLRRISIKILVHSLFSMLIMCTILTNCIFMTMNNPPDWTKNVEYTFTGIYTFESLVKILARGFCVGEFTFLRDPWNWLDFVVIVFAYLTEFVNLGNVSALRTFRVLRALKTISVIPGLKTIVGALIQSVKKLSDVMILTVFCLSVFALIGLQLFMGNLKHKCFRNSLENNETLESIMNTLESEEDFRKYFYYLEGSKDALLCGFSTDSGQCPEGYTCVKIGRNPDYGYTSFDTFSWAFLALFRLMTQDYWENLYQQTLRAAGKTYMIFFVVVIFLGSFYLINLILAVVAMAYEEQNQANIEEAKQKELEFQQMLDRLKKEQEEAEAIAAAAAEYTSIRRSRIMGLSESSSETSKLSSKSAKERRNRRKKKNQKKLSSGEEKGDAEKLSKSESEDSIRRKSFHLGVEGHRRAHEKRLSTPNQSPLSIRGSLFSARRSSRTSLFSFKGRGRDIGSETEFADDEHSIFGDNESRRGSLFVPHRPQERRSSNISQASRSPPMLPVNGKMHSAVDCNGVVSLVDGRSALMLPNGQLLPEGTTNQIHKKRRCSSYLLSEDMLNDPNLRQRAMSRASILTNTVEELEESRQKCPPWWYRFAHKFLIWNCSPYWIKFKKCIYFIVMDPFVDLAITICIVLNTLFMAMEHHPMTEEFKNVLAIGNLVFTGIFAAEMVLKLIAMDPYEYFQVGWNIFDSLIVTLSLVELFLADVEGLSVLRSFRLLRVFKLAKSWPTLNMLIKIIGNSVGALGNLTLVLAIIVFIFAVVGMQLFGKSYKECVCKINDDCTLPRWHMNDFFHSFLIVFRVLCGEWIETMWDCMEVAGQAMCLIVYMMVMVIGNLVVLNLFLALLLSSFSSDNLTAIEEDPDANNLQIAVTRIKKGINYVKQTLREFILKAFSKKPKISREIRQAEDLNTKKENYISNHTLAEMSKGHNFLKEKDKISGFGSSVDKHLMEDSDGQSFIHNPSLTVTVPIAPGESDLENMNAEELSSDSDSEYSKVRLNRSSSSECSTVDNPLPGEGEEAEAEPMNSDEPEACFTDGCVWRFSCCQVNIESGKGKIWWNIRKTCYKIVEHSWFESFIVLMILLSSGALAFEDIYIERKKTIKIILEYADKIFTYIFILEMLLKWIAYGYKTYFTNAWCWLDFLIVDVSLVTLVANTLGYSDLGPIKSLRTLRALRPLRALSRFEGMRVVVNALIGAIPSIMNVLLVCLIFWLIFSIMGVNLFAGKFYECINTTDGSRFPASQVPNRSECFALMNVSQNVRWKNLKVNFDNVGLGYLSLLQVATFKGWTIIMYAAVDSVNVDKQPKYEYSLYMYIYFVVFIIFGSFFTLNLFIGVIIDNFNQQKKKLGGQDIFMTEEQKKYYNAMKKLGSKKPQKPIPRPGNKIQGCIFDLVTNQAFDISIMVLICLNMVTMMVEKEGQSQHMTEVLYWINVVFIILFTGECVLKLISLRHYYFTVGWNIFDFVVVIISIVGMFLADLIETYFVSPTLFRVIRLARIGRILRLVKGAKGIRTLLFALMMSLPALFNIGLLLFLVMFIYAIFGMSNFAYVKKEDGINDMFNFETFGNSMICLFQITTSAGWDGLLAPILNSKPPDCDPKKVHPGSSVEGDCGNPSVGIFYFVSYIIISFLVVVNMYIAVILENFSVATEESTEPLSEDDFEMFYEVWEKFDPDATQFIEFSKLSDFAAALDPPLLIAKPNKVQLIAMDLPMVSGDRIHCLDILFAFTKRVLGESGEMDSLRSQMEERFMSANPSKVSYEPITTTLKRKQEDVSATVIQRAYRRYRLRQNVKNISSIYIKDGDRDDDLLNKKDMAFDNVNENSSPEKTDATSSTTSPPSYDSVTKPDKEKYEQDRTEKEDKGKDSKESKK

hNav1.7 [2] = target: T1, hNav1.7; assay: Tritiated compound binding to membranes from cells heterologously expressing hNav1.7 and the β1 subunit (Nav1.7 LBA); settings: competitive binding vs [3H]compound, membranes with hNav1.7 and β1 subunit; read-out: Nav1.7 LBA EVO IC50
In short: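 Membranes from cells expressing hNav1.7 with β1 were incubated at room temperature with a tritiated competitive Nav1.7 inhibitor plus test compound in 100 mM NaCl, 20 mM Tris pH 7.4, 0.01% BSA; nonspecific binding was set with 1 μM unlabeled compound. Incubation was 18 h with […] radioligand, or 3 h with […]. Bound ligand was filtered and counted, and IC50 came from a 4-parameter fit.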
Target sequence in this assay (Q15858 whole entry, looked up): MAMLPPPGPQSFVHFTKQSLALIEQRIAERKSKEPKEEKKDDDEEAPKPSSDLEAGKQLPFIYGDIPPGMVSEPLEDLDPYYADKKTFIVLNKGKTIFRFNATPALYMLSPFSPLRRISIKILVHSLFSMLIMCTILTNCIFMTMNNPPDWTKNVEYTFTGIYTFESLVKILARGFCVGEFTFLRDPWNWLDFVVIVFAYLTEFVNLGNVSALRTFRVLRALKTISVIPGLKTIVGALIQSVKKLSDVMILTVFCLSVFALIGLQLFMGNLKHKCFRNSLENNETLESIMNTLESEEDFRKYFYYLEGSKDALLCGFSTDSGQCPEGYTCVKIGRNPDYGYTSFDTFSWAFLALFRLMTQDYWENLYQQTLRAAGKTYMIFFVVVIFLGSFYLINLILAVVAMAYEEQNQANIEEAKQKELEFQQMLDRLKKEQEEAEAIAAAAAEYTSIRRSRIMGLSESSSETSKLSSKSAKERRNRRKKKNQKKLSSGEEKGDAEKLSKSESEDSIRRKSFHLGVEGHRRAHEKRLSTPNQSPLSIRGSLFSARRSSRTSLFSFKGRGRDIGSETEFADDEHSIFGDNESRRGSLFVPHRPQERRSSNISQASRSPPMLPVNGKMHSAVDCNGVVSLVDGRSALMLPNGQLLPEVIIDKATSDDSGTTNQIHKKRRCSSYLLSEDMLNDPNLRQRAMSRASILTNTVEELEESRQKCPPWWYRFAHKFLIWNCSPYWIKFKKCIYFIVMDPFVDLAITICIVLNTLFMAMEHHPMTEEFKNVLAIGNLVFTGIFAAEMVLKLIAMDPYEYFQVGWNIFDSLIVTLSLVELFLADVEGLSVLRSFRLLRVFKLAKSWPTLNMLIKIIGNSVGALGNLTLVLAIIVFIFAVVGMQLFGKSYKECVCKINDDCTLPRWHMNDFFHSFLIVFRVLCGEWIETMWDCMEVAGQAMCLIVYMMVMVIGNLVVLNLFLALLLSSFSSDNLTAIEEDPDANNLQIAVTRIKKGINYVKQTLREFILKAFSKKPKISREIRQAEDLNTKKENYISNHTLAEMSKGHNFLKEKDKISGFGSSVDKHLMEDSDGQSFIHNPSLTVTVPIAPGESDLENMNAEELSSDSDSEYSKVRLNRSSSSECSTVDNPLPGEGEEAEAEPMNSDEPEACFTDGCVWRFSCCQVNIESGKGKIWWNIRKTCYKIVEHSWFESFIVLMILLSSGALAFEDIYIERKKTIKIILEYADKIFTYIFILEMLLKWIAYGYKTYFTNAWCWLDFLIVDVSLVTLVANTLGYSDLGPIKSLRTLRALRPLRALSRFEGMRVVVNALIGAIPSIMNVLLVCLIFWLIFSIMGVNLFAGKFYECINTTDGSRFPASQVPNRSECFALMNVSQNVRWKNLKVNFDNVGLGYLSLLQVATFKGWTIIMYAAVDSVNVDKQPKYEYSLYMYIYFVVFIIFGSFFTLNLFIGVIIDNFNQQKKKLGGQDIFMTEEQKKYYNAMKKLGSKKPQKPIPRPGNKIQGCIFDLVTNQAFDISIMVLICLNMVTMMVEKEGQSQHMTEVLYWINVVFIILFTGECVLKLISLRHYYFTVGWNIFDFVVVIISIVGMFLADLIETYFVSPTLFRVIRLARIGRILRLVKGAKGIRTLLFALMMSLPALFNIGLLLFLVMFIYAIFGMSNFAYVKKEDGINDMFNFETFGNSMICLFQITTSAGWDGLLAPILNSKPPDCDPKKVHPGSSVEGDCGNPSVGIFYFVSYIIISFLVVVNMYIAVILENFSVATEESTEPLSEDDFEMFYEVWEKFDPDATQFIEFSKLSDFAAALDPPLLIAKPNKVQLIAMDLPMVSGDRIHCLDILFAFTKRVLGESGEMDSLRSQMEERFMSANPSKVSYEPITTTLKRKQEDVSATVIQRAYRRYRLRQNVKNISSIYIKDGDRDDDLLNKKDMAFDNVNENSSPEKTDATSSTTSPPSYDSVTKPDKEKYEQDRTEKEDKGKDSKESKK
Target sequence in this assay (Q07699 whole entry partner, looked up): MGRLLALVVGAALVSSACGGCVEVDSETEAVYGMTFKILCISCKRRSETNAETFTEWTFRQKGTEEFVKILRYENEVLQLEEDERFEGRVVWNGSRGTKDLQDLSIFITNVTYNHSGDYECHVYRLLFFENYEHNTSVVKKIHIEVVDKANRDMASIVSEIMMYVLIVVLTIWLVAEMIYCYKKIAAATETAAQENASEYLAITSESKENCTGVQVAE

Row | IC50 (hNav1.7 [1]) [nM] | IC50 (hNav1.7 [2]) [nM] | SMILES
1 | 0.494 | 2.24 | O=S(=O)(Nc1ccncn1)c1cc(F)c(N[C@H]2CC[C@H](c3cc(F)cc(C(F)(F)F)c3)C[C@@H]2N2CCCC2)cc1F [Example 85, 2,5-difluoro-4-(((1S,2S,4S)-4-(3-fluoro-5-(trifluoromethyl)phenyl)-2-(pyrrolidin-1-yl)cyclohexyl)-amino)-N-(pyrimidin-4-yl)benzenesulfonamide formate]
2 | 1.18 | 7.94 | CN1CC(N[C@H]2C[C@@H](c3cccc(C(F)(F)F)c3)CC[C@@H]2Oc2cc(F)c(S(=O)(=O)Nc3ccncn3)cc2Cl)C1 [Example 87, 5-chloro-2-fluoro-4-(((1S,2S,4S)-2-((1-methylazetidin-3-yl)amino)-4-(3-(trifluoromethyl)phenyl)-cyclohexyl)oxy)-N-(pyrimidin-4-yl)benzenesulfonamide]
3 | 17 | 170 | CN(C)[C@H]1C[C@@H](c2cccc(C(F)(F)F)c2)CC[C@@H]1Nc1c(F)cc(S(=O)(=O)Nc2ccncn2)cc1F [Example 88, 4-(((1S,2S,4S)-2-(Dimethylamino)-4-(3-(trifluoromethyl)phenyl)cyclohexyl)amino)-3,5-difluoro-N-(pyrimidin-4-yl)benzenesulfonamide]

Further lines, the compound ahead of its results:

Row | SMILES | IC50 (hNav1.7 [1]) [nM] | IC50 (hNav1.7 [2]) [nM]
4 | CN(C)[C@H]1C[C@@H](c2cc(C(F)(F)F)ccc2Cl)CC[C@@H]1Oc1cc(F)c(S(=O)(=O)Nc2ccncn2)cc1Cl [Example 86, 5-chloro-4-(((1S,2S,4S)-4-(2-chloro-5-(trifluoromethyl)phenyl)-2-(dimethylamino)-cyclohexyl)oxy)-2-fluoro-N-(pyrimidin-4-yl)benzenesulfonamide] | 0.819 | 3.28
5 | CN(C)[C@H]1C[C@@H](c2cccc(C(C)(F)F)c2)CC[C@@H]1Oc1cc(F)c(S(=O)(=O)Nc2ccncn2)cc1Cl [Example 91, 5-chloro-4-(((1S,2S,4S)-4-(3-(1,1-difluoroethyl)phenyl)-2-(dimethylamino)cyclohexyl)oxy)-2-fluoro-N-(pyrimidin-4-yl)benzenesulfonamide] | 1.2 | 6.13
6 | CN(C)[C@H]1C[C@@H](c2cccc(C(F)(F)F)c2Cl)CC[C@@H]1Oc1cc(F)c(S(=O)(=O)Nc2ccncn2)cc1Cl [Example 92, 5-chloro-4-(((1S,2S,4S)-4-(2-chloro-3-(trifluoromethyl)phenyl)-2-(dimethylamino)-cyclohexyl)oxy)-2-fluoro-N-(pyrimidin-4-yl)benzenesulfonamide] | 3.99 | 55.7
